Measured values as given in PubChem BioAssay (NCI).
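Cells were grown in 96-well plates and exposed to each compound for 48 hours at five concentrations; endpoints were interpolated linearly between bracketing concentrations, or set to the highest concentration if not reached. GI50 marks 50% less growth. Definition used: TGI = concentration required for complete inhibition of growth.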

Tests used:
Assay in all cases: inhibition of tumour cell growth, NCI panel, 48 h
NCI-H226 lung = test system: NCI-H226 lung
NCI-H23 lung = test system: NCI-H23 lung
NCI-H522 lung = test system: NCI-H522 lung
OVCAR-5 ovarian = test system: OVCAR-5 ovarian
RXF 393 renal = test system: RXF 393 renal
SK-MEL-5 melanoma = test system: SK-MEL-5 melanoma
SK-OV-3 ovarian = test system: SK-OV-3 ovarian
SNB-19 CNS = test system: SNB-19 CNS
SNB-75 CNS = test system: SNB-75 CNS
UACC-62 melanoma = test system: UACC-62 melanoma

Row | Compound | TGI (NCI-H226 lung) | TGI (NCI-H23 lung) | TGI (NCI-H522 lung) | TGI (OVCAR-5 ovarian) | TGI (RXF 393 renal) | TGI (SK-MEL-5 melanoma) | TGI (SK-OV-3 ovarian) | TGI (SNB-19 CNS) | TGI (SNB-75 CNS) | TGI (UACC-62 melanoma) | GI50 (NCI-H226 lung) | GI50 (NCI-H23 lung) | GI50 (NCI-H522 lung) | GI50 (OVCAR-5 ovarian) | GI50 (RXF 393 renal) | GI50 (SK-MEL-5 melanoma) | GI50 (SK-OV-3 ovarian) | GI50 (SNB-19 CNS) | GI50 (SNB-75 CNS) | GI50 (UACC-62 melanoma)
1 | C[C@H]1C=C2C(=O)O[C@H]3CC[C@@H](C1)[C@@]23O | 29.3 µM | 9.53 µM | 8.15 µM | 12.7 µM | 9.02 µM | 16.6 µM | 22.4 µM | 30.6 µM | 19.5 µM | 13.2 µM |  |  |  |  |  |  |  |  |  | 
2 | COc1ccc(-c2cc(=O)c3c(O)c(OC)c(OC)c(OC)c3o2)cc1 | > 100 µM | > 74.7 µM | > 100 µM | > 100 µM | 62.2 µM | > 100 µM | > 100 µM | > 100 µM | > 56.3 µM | > 100 µM |  |  |  |  |  |  |  |  |  | 
3 | Nc1cccc2c1C(=O)c1cccc(NC(=O)c3ccccc3)c1C2=O | > 100 µM | > 100 µM | 0.618 µM | > 100 µM | 2.95 µM | 15 µM | 9.24 µM | > 100 µM | 3.88 µM | 14 µM | 1.7 µM | 0.903 µM | 0.0655 µM | 1.92 µM | 0.363 µM | 0.355 µM | 0.425 µM | 0.591 µM | 0.28 µM | 0.221 µM
4 | CCOC(=O)CN1C(=O)c2cc([N+](=O)[O-])cc3cc([N+](=O)[O-])cc(c23)C1=O | > 100 µM | > 100 µM | 46.3 µM | > 100 µM | 83 µM | > 100 µM | > 100 µM | > 100 µM | > 100 µM | > 100 µM |  |  |  |  |  |  |  |  |  | 
5 | Cc1cc(O)c(-c2ccc([C@@H](C)CN(C)C)cc2)c2c1[nH]c(=O)c1sccc12 | 18.4 µM | 6.41 µM | 2.9 µM | 17.5 µM | 0.53 µM | 3.98 µM | 3.65 µM | 23.3 µM | 3.02 µM | 4.99 µM | 1.75 µM | 1.06 µM | 0.436 µM | 2.25 µM | 0.167 µM | 0.805 µM | 0.332 µM | 0.724 µM | 0.206 µM | 1.32 µM
6 | C=C1C[C@@H]2C[C@@H](C)CC(O)[C@]2(CCCN)C1O (stereo not given in full) | > 100 µM | > 100 µM | > 100 µM | > 100 µM | > 100 µM | > 100 µM | > 100 µM | > 100 µM | > 100 µM | > 100 µM |  |  |  |  |  |  |  |  |  | 
7 | O=C(/C=C/C12c3ccccc3C(c3ccccc31)C1C(=O)NC(=O)C12)c1ccccc1 (stereo not given) | 6.51 µM | 4.01 µM | 3.69 µM | 4.83 µM | 2.94 µM | 3.1 µM | 5.2 µM | 3.34 µM | 2.55 µM | 3.82 µM | 2.28 µM | 1.79 µM | 1.8 µM | 2.01 µM | 1.5 µM | 1.72 µM | 2.37 µM | 1.66 µM | 1.2 µM | 1.77 µM
8 | CC(=O)Oc1ccc2c(c1)C(=O)c1nc(C)c(C)nc1C2=O | > 100 µM | > 100 µM | 89.6 µM | > 100 µM | 96.4 µM | 30.1 µM | > 100 µM | > 93.8 µM | > 100 µM | 38.8 µM |  |  |  |  |  |  |  |  |  | 
